Experimental findings from patent publication EP4711369A1, “1H-[1,2,3]TRIAZOLO[4,5-H]QUINAZOLINE COMPOUNDS AS PROTEIN KINASE INHIBITORS” (Chengdu Cynogen Bio-Pharmaceutical Technology Co., Ltd., priority 2023, dated 2024) are described below.

Like-named read-outs stand apart in the source and are kept apart here.

Assay [1] deals with Human ovarian cancer OVCAR3 cells. As to the kind of experiment: Assay of cell proliferation (CellTiter-Glo). Conditions: 6 days, read-out: OVCAR3 IC50 of cell proliferation inhibitory activity. The class given is cell-based. On the procedure:
(§1) Human ovarian cancer OVCAR3 cells were inoculated at 2000 cells/well in a 96-well plate and cultured in RPMI 1640 medium containing 20% FBS at 37 °C and 5% CO2 overnight in an incubator. The next day, the compounds were subjected to a three-fold gradient dilution in DMSO from a peak concentration of 2 mM to give nine concentrations. Then, the compounds were diluted 3:200 in growth medium, and finally diluted 1:3 in the cell culture supernatant to give a culture supernatant containing 0.5% DMSO, with the compounds treatment concentrations ranging from 10 µM to 0.1 nM. The cells and the compounds were incubated at 37 °C and 5% CO2 for 6 days. Then, cell proliferation assay was performed using the CellTiter-Glo (manufacturer: Promega, Cat. No. G9242), and luminescence signals were read using a multifunctional microplate reader (model: Synergy H1, manufacturer: BiotTek). IC50 values were calculated by fitting of the concentration-response curves with a four-parameter analysis method using GraphPad Prism software.

The next assay addresses CDK4/cyclin D1 (Homo sapiens, UniProt P11802). As to the kind of experiment: Assay of kinase activity (ADP-Glo). It is filed as biochemical. Particulars: kinase inhibitory activity. On the procedure:
(§2) CDK/cyclin catalyzes the phosphorylation of a substrate, which concomitantly consumes ATP and produces ADP. The inhibition rate (%) in the presence of a small molecule inhibitor was assessed by measuring the amount of ADP generated in the reaction. The assay compounds were thoroughly mixed by vortexing and then diluted in DMSO to 100× the assay concentration. […] A 2× kinase solution was prepared using a 1× kinase reaction buffer (50 mM Hepes, 10 mM MgCl2, 0.01% Brij35, 2 mM DTT). 2 µL of the kinase solution was transferred to the 384-well assay plate, and the plate was centrifuged at 1000 rpm for 60 seconds in a microplate centrifuge. The plate was incubated at 25 °C in a biochemical incubator for 10 minutes. A 2x mixture of substrate and ATP was prepared in the kinase reaction buffer. Then, 2 µL of the mixture of substrate and ATP was added to the 384-well assay plate. The plate was centrifuged at 1000 rpm for 60 seconds in a microplate centrifuge, and incubated at 25 °C in a biochemical incubator for 60 minutes. 4 µL of ADP-Glo Reagent (Cat. No. V9103, manufacturer: Promega) incubated at 25 °C in a biochemical incubator was added to each well of the 384-well assay plate. The plate was centrifuged at 1000 rpm for 60 seconds in a microplate centrifuge, and incubated at 25 °C in a biochemical incubator for 40 minutes. 8 µL of Detection Reagent incubated at 25 °C in a biochemical incubator was added to each well of the 384-well assay plate. The plate was centrifuged at 1000 rpm for 60 seconds in a microplate centrifuge, and incubated at 25 °C in a biochemical incubator for 40 minutes. Finally, luminescence signals were read using a multifunctional microplate reader (model: PHERAstar FSX, manufacturer: BMG). IC50 values were calculated by nonlinear fitting of the concentration-response curves using GraphPad Prism software.
For orientation: ADP-Glo first removes unused ATP, then detects ADP through luciferase.

In the next assay the target is CDK2/cyclin E (Homo sapiens, UniProt P24941). As to the kind of experiment: Assay of kinase activity (ADP-Glo). The class given is biochemical. Conditions: kinase inhibitory activity, read-out: CDK2/E1 IC50. The protocol:
as §2

A further assay concerns the target CDK9/cyclin T1 (Homo sapiens, UniProt P50750). The assay can be described thus: Assay of kinase activity (ADP-Glo). Conditions: kinase inhibitory activity. The class given is biochemical. On the procedure: (§3) CDK/cyclin catalyzes the phosphorylation of a substrate, which concomitantly consumes ATP and produces ADP. The inhibition rate (%) in the presence of a small molecule inhibitor was assessed by measuring the amount of ADP generated in the reaction. The assay compounds were thoroughly mixed by vortexing and then diluted in DMSO to 100× the assay concentration. 40 nL of a compound was transferred to a 384-well assay plate using a nanoliter pipetting system (ECHO® 655 SYSTEM). A 2× kinase solution was prepared using a 1× kinase reaction buffer (50 mM Hepes, 10 mM MgCl2, 0.01% Brij35, 2 mM DTT). 2 µL of the kinase solution was transferred to the 384-well assay plate, and the plate was centrifuged at 1000 rpm for 60 seconds in a microplate centrifuge. The plate was incubated at 25 °C in a biochemical incubator for 10 minutes. A 2x mixture of substrate and ATP was prepared in the kinase reaction buffer. Then, 2 µL of the mixture of substrate and ATP was added to the 384-well assay plate. The plate was centrifuged at 1000 rpm for 60 seconds in a microplate centrifuge, and incubated at 25 °C in a biochemical incubator for 60 minutes. 4 µL of ADP-Glo Reagent (Cat. No. V9103, manufacturer: Promega) incubated at 25 °C in a biochemical incubator was added to each well of the 384-well assay plate. The plate was centrifuged at 1000 rpm for 60 seconds in a microplate centrifuge, and incubated at 25 °C in a biochemical incubator for 40 minutes. 8 µL of Detection Reagent incubated at 25 °C in a biochemical incubator was added to each well of the 384-well assay plate. The plate was centrifuged at 1000 rpm for 60 seconds in a microplate centrifuge, and incubated at 25 °C in a biochemical incubator for 40 minutes. Finally, luminescence signals were read using a multifunctional microplate reader (model: PHERAstar FSX, manufacturer: BMG). IC50 values were calculated by nonlinear fitting of the concentration-response curves using GraphPad Prism software.

The target in a further assay is CDK6/cyclin D3 (Homo sapiens, UniProt Q00534). The assay can be described thus: Assay of kinase activity (ADP-Glo). The class given is biochemical. Particulars: kinase inhibitory activity. The protocol:
as §3

Assay [2] deals with human breast cancer HCC1806 cells. As to the kind of experiment: Assay of cell proliferation (CellTiter-Glo). It is filed as cell-based. Particulars: 6 days, read-out: HCC1806 IC50 of cell proliferation inhibitory activity. On the procedure: as §1
(§4) The cell proliferation assays of human colon cancer HCT-116 cells, human breast cancer MCF-7 cells, human breast cancer HCC1806 cells, human acute myeloid leukemia MV-4-11 cells, and human gastric cancer MKN1 cells were performed according to the same method, with different inoculation densities set according to different cell growth characteristics.
In general terms: In ATP-based viability assays light output follows the ATP content of the culture.

Assay [3] has as its system human gastric cancer MKN1 cells. As to the kind of experiment: Assay of cell proliferation (CellTiter-Glo). The class given is cell-based. Particulars: read-out: MKN1 IC50 of cell proliferation inhibitory activity. The protocol: as §1, §4
The mark [4] stands for this setting: Homo sapiens, MKN-1, 144 h, MNK1, 6 days.

Sequence of CDK4/cyclin D1 (P11802 whole entry, species assumed): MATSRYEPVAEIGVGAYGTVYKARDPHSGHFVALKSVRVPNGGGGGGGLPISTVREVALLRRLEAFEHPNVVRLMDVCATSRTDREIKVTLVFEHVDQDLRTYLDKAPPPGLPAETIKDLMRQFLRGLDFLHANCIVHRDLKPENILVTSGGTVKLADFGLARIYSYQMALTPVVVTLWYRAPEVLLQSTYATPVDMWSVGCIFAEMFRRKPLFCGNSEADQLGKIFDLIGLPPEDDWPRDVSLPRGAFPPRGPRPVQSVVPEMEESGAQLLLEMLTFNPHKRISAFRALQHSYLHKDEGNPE
Sequence of CDK4/cyclin D1 (P24385 whole entry partner, species assumed): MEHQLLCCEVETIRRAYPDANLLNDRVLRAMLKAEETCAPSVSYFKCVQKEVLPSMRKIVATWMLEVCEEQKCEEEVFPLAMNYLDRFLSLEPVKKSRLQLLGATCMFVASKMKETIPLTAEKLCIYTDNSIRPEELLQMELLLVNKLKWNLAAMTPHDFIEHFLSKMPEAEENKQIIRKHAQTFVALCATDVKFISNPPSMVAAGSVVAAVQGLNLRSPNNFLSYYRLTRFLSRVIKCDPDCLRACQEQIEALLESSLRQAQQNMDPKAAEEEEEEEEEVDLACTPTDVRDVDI
Sequence of CDK9/cyclin T1 (P50750 whole entry, species assumed): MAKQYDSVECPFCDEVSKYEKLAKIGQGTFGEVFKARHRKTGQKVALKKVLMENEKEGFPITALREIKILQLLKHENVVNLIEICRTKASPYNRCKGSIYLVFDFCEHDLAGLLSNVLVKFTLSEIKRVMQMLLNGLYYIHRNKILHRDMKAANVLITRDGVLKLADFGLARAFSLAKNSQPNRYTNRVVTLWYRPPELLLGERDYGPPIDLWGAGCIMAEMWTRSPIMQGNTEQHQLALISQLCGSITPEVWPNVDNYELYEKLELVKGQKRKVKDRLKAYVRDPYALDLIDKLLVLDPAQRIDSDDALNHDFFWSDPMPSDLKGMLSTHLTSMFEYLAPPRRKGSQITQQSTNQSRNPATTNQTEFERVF
Sequence of CDK9/cyclin T1 (O60563 whole entry partner, species assumed): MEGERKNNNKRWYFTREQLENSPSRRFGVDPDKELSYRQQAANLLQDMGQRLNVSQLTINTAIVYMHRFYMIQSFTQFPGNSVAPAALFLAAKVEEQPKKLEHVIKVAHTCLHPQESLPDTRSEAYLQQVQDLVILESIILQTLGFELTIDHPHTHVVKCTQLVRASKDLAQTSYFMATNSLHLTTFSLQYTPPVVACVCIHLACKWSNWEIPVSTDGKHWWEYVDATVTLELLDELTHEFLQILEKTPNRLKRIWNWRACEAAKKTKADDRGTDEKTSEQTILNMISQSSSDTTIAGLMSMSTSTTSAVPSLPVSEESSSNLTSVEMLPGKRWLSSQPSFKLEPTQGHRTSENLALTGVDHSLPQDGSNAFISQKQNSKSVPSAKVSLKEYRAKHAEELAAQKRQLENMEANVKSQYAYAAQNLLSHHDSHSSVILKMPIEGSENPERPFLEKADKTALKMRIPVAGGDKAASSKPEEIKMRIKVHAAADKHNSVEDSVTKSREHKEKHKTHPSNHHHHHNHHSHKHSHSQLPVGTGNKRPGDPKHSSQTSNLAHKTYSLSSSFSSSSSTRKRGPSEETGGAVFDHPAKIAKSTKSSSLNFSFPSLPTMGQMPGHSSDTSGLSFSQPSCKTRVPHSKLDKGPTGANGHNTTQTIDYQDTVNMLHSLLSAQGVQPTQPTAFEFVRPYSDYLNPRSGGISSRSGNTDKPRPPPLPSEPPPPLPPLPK
Sequence of CDK6/cyclin D3 (Q00534 whole entry, species assumed): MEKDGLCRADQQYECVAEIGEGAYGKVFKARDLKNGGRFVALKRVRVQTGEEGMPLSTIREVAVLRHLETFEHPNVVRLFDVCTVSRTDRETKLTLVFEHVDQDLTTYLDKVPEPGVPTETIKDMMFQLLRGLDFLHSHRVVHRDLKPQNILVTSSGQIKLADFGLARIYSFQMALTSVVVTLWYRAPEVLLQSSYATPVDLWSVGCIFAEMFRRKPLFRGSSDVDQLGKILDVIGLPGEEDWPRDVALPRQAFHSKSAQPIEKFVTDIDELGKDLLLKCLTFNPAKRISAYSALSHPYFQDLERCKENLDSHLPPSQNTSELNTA
Sequence of CDK6/cyclin D3 (P30281 whole entry partner, species assumed): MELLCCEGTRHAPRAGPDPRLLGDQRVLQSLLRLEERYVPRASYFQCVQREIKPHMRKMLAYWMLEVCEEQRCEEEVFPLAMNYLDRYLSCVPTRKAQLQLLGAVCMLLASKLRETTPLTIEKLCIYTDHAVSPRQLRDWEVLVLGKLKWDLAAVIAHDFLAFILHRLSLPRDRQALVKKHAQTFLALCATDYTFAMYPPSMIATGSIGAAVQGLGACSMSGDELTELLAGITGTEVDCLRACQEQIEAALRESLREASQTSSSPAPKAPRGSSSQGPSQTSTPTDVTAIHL

Consider `N[C@H]1CCN(C(=O)c2ccc(Nc3ncc4ccc5nnn(C6CCCC6)c5c4n3)cc2)C1` [Example I-38, (S)-(3-Aminopyrrolidin-1-yl)(4-((1-cyclopentyl-1H-[1,2,3]triazolo[4,5-H]quinazolin-8-yl)amino)phenyl)methanone], for which the IC50 in assay [1] (Homo sapiens, OVCAR-3, 144 h) was found to be 8 nM; at CDK4/cyclin D1, 0.5 nM; at CDK2/cyclin E, 0.05 nM; against CDK9/cyclin T1, 4 nM; against CDK6/cyclin D3, 3 nM; in assay [2] (Homo sapiens, 144 h), 13 nM. For the same compound, the IC50 in assay [3] (setting [4]) was 1 nM.

Regarding `CC(C)n1nnc2c(C(F)F)cc3cnc(Nc4ccc(C(=O)N5CC[C@H](N(C)C)C5)cc4)nc3c21` [Example I-45, (S)-(4-((4-(Difluoromethyl)-1-isopropyl-1H-[1,2,3]triazolo[4,5-H]quinazolin-8-yl)amino)phenyl)(3-(dimethylamino)pyrrolidin-1-yl)methanone], the IC50 was found to be 359 nM in assay [1] (Homo sapiens, OVCAR-3, 144 h); 3 nM against CDK4/cyclin D1; 0.8 nM on CDK2/cyclin E; 144 nM against CDK9/cyclin T1; 36 nM against CDK6/cyclin D3; 476 nM in assay [2] (Homo sapiens, 144 h). Moreover, the IC50 in assay [3] (setting [4]) came out at 241 nM.

Take `C[C@H](CO)n1nnc2ccc3cnc(Nc4ccc(C(=O)N5CCNCC5)cc4)nc3c21` [Example I-50, (R)-(4-((1-(1-Hydroxypropan-2-yl)-1H-[1,2,3]triazolo[4,5-H]quinazolin-8-yl)amino)phenyl)(piperazin-1-yl)methanone]: the IC50 in assay [1] (Homo sapiens, OVCAR-3, 144 h) is 1310 nM; against CDK4/cyclin D1, 4 nM; on CDK2/cyclin E it was 2 nM; against CDK9/cyclin T1, 100 nM; against CDK6/cyclin D3 it was 85 nM; in assay [2] (Homo sapiens, 144 h) it was 1740 nM. Besides, in assay [3] (setting [4]), the IC50 turned out to be 548 nM.

For `CC(C)n1nnc2ccc3cnc(Nc4ccc(C(=O)N5CCC(N(C)C)CC5)cc4)nc3c21` [Example I-15, (4-(Dimethylamino)piperidin-1-yl)(4-((1-isopropyl-1H-[1,2,3]triazolo[4,5-H]quinazolin-8-yl)amino)phenyl)metha none], the IC50 in assay [1] (Homo sapiens, OVCAR-3, 144 h) worked out at 264 nM; against CDK4/cyclin D1, 2 nM; on CDK2/cyclin E it was 1 nM; against CDK9/cyclin T1, 44 nM; against CDK6/cyclin D3, 94 nM; in assay [2] (Homo sapiens, 144 h), 177 nM.

As for `CC(C)(O)Cn1nnc2ccc3cnc(Nc4ccc(C(=O)N5CCNCC5)cc4)nc3c21` [Example I-52, (4-((1-(2-Hydroxy-2-methylpropyl)-1H-[1,2,3]triazolo[4,5-H]quinazolin-8-yl)amino)phenyl)(piperazin-1-yl)methanone], the IC50 turned out to be 10 nM at CDK4/cyclin D1; 4 nM at CDK2/cyclin E; 419 nM on CDK9/cyclin T1; 127 nM against CDK6/cyclin D3; 5090 nM in assay [2] (Homo sapiens, 144 h).

As for `CN[C@H]1CCN(C(=O)c2ccc(Nc3ncc4ccc5nnn(C6CCCC6)c5c4n3)cc2)C1` [Example I-39, (S)-(4-((1-cyclopentyl-1H-[1,2,3]triazolo[4,5-H]quinazolin-8-yl)amino)phenyl)(3-(methylamino)pyrrolidin-1-yl)methanone], the IC50 in assay [1] (Homo sapiens, OVCAR-3, 144 h) was 5 nM; against CDK4/cyclin D1 it was 0.7 nM; on CDK2/cyclin E, 0.07 nM; at CDK9/cyclin T1 it was 2 nM; on CDK6/cyclin D3, 4 nM; in assay [2] (Homo sapiens, 144 h) it was 7 nM. Also, the IC50 in assay [3] (setting [4]) was found to be 1 nM.

With `C[C@@H](CO)n1nnc2ccc3cnc(Nc4ccc(C(=O)N5CCNCC5)cc4)nc3c21` [Example I-48, (S)-(4-((1-(1-Hydroxypropan-2-yl)-1H-[1,2,3]triazolo[4,5-H]quinazolin-8-yl)amino)phenyl)(piperazin-1-yl)methanone], the IC50 against CDK4/cyclin D1 was found to be 7 nM; at CDK2/cyclin E it was 3 nM; on CDK9/cyclin T1, 344 nM; against CDK6/cyclin D3 it was 205 nM; in assay [2] (Homo sapiens, 144 h), 5500 nM.

`CC(C)N1CCN(C(=O)c2ccc(Nc3ncc4ccc5nnn(C(C)C)c5c4n3)cc2)CC1` [Example I-30, (4-Isopropylpiperazin-1-yl)(4-((1-isopropyl-1H-[1,2,3]triazolo[4,5-H]quinazolin-8-yl)amino)phenyl)metha none]: the IC50 turned out to be 19 nM in assay [1] (Homo sapiens, OVCAR-3, 144 h); 2 nM against CDK4/cyclin D1; 1 nM at CDK2/cyclin E; 44 nM at CDK9/cyclin T1; 94 nM against CDK6/cyclin D3; 151 nM in assay [2] (Homo sapiens, 144 h). Moreover, the IC50 in assay [3] (setting [4]) is 20 nM.

Regarding “(S)-(3-Aminopyrrolidin-1-yl)(4-(4-(difluoromethyl)-1-isopropyl-1H-[1,2,3]triazolo[4,5-H]quinazolin-8-yl)amino)phenyl)methanone [Example I-43]”, the IC50 was determined as 676 nM in assay [1]; 2 nM against CDK4/cyclin D1; 1 nM at CDK2/cyclin E; 130 nM against CDK9/cyclin T1; 8 nM on CDK6/cyclin D3; 631 nM in assay [2]. For the same compound, the IC50 in assay [3] (column head MKN1, 6 days) amounted to 444 nM.

Regarding `CC(C)(O)Cn1nnc2ccc3cnc(Nc4ccc(C(=O)N5CCOCC5)cc4)nc3c21` [Example I-53, (4-((1-(2-Hydroxy-2-methylpropyl)-1H-[1,2,3]triazolo[4,5-H]quinazolin-8-yl)amino)phenyl)(morpholino)methanone], the IC50 in assay [1] (Homo sapiens, OVCAR-3, 144 h) came to 1720 nM; against CDK4/cyclin D1 it was 49 nM; on CDK2/cyclin E, 8 nM; against CDK9/cyclin T1 it was 995 nM; on CDK6/cyclin D3 it was 803 nM; in assay [2] (Homo sapiens, 144 h), 3170 nM.

Consider `C[C@@H](CO)n1nnc2ccc3cnc(Nc4ccc(C(=O)N5CCOCC5)cc4)nc3c21` [Example I-49, (S)-(4-((1-(1-Hydroxypropan-2-yl)-1H-[1,2,3]triazolo[4,5-H]quinazolin-8-yl)amino)phenyl)(morpholino)methanone], for which the IC50 stood at 1370 nM in assay [1] (Homo sapiens, OVCAR-3, 144 h); 21 nM against CDK4/cyclin D1; 3 nM at CDK2/cyclin E; 390 nM at CDK9/cyclin T1; 401 nM against CDK6/cyclin D3; 2160 nM in assay [2] (Homo sapiens, 144 h).
